Reference: article PMC12068008 (International Journal of Molecular Sciences, 2024)

Legend:
[1] = DPPH radical scavenging assay; conditions: 30 min incubation, 25 °C
Description: DPPH (2,2-diphenyl-1-picrylhydrazyl) radical scavenging assay was used to assess free-radical scavenging activity of synthesized compounds. Initially, 1 × 10^−4 M working solution of DPPH was prepared, and 350 µL was added to 350 µL of the solution of each compound. The final concentrations of the compounds (Q, 2a, and 2b) in the samples were 1 × 10^−3 M, 1 × 10^−4 M, and 1 × 10^−5 M. The control included ethanol only and DPPH–ethanol solution without compounds. The mixtures were incubated at 25 °C in the dark for 30 min. After incubation, the absorbance of the samples at 517 nm was measured in duplicate by using a UV/Vis spectrophotometer (Lambda 35, Perkin Elmer, Waltham, MA, USA). The DPPH radical scavenging ability was calculated using the following equation:(1) Antioxidative activity(%)=Acontrol−Asample/Acontrol×100% where Asample and Acontrol represent the absorbance at 517 nm of the sample and control, respectively. All samples were analysed in duplicate.

Na^+, K^+-ATPase = test: Na+,K+-ATPase assay (orthophosphate release); type: biochemical, porcine
Description: Na^+, K^+-ATPase activity was assessed using a modified version of the method by Seals et al., based on measuring the change in orthophosphate concentration released during ATP hydrolysis. The incubation mixture was prepared at 50 mM TRIS-HCl (pH 7.4), containing 5 mM MgCl2, 100 mM NaCl, 20 mM KCl, 25 μL of 5mg/mL commercial enzyme solution, and 20 μL of an inhibitor solution at a certain concentration. After preincubating the mixture for 10 min at 37 °C, the reaction was initiated by adding 20 μL of 20 mM ATP. The reaction proceeded for 10 min at 37 °C before being terminated by adding 22 μL of 3 M cold perchloric acid, with the tube then placed on ice. In the blank sample, the incubation mixture contained only TRIS buffer (pH 7.4) without MgCl2, NaCl, or KCl. The reaction volume was adjusted to a final volume of 200 μL, after which 4.5 mL of water was added. Released orthophosphate was quantified using a colorimetric reaction with 200 μL of 0.2 M ammonium molybdate in 30% sulfuric acid and one drop of 2.5% SnCl2 in glycerol. Total ATPase activity was determined by measuring the absorbance of solution at 690 nm. Enzyme activity was expressed as relative enzyme activity (REA), defined as the percentage of Na^+, K^+-ATPase activity remaining in comparison to samples without inhibitor (control activity).

SMILES: O=c1c(O)c(-c2ccc(O)c(O)c2)oc2c(CN3CCc4ccccc4C3)c(O)cc(O)c12 [Compound 2a]
- IC50 [1]: 1.59 µM

SMILES: COc1cc2c(cc1OC)CN(Cc1c(O)cc(O)c3c(=O)c(O)c(-c4ccc(O)c(O)c4)oc13)CC2 [Compound 2b]
- IC50 [1]: 10.2 µM
- IC50 (Na^+, K^+-ATPase; 37 °C): 0.97 µM
- Percentage Inhibition Na^+, K^+-ATPase (Na^+, K^+-ATPase; at 1 × 10^−4 M, 37 °C): 100%
- fold decrease in IC50 toward Na^+, K^+-ATPase compared to bare quercetin (Na^+, K^+-ATPase; versus quercetin): 50 fold
